Patent publication US20240238423A9, “TETRAHYDROISOQUINOLINE HETEROBIFUNCTIONAL BCL-XL DEGRADERS” (Treeline Biosciences, Inc., priority 2022, published 2024)
Read-outs that look alike come from different tables or passages of the source.

Molecular target: T1, Human BCL-XL protein (N-terminal HiBiT tagged BCL-XL in HT1080 cells) (Homo sapiens, UniProt Q07817)
T1 construct: expressed in transfected cells; host or cells: HT-1080 (ATCC CCL-121), stably transduced with lentivirus pLV-UBC-N-HiBiT-BCL-XL-PGK-puro and selected with puromycin
T1 sequence (Q07817 whole entry): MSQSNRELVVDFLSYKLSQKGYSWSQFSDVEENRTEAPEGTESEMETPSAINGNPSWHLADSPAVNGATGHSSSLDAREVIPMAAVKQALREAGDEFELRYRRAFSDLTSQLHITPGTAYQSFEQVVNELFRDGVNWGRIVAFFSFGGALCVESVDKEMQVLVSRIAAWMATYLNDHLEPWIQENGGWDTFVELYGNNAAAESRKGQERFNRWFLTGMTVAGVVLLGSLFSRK
Assay: HiBiT based degradation assay
Type: cell-based
Settings: HT1080 cells expressing HiBiT-BCL-XL; for Ymin (24 h) / Ymin (6 h): BCL-XL degradation normalized with DMSO control; for DC50: BCL-XL degradation
Source text: Human BCL-XL protein coding open reading frame fused with N-terminal HiBiT coding sequence was synthesized from Integrated DNA Technologies (IDT). Next, N-HiBiT-BCL-XL sequence was cloned into pLV-UBC-PGK-Puro, a lentivirus plasmid purchased from Vectorbuilder, to generate pLV-UBC-N-HiBiT-BCL-XL-PGK-puro. Lentiviral particles were generated from Lenti-X™ 293T cells (Clontech) by co-transfection of pLV-UBC-N-HiBiT-BCL-XL-PGK-puro plasmids and lentiviral packaging plasmid mix (Cellecta). HT-1080 [HT1080](ATCC CCL-121) cells were infected with the lentivirus, and HT1080 cells stably integrated with the lentiviral vectors were established by incubation with 1 μg/mL puromycin (Thermofisher).
HT1080 cells expressing N-terminal HiBiT tagged BCL-XL were dispensed into a 384-well plate pre-spotted with compounds at varying concentrations. Three thousand cells were seeded into each well in 40 μL of RPMI 1640 media. […] After incubation, luminescence was read on a PHERAstar FSX Plate Reader (BMG). BCL-XL degradation at each indicated concentration was normalized with the DMSO control. The BCL-XL degradation curves were plotted using a four-parameter logistic model. For compounds displaying hook effects, the curve fitting was performed using the bottom point of the hook curves (i.e., the point of Ymin) as the bottom plateau to calculate EC50.

SMILES	Ymin (24 h)	DC50 (24 h, read-out: EC50 (24 h)) [nM]	Ymin (6 h)	DC50 (6 h, read-out: EC50 (6 h)) [nM]
Cc1c(OCCCC[C@H]2CCCN(CC(=O)Nc3cccc4c(C5CCC(=O)NC5=O)nn(C)c34)C2)cccc1-c1ccc(N2CCc3cccc(C(=O)Nc4nc5ccccc5s4)c3C2)nc1C(=O)O (stereo partly drawn) [Compound 186b, 6-[8-(1,3-benzothiazol-2-ylcarbamoyl)-3,4-dihydro-1H-isoquinolin-2-yl]-3-[3-[4-[(3S)-1-[2-[[3-(2,6-dioxo-3-piperidyl)-1-methyl-indazol-7-yl]amino]-2-oxo-ethyl]-3-piperidyl]butoxy]-2-methyl-phenyl]pyridine-2-carboxylic acid]	C (Ymin ≥ 70%)	1000 to 10000		
Cc1c(OCCCc2ccc(CC(=O)Nc3ccc4c(C5CCC(=O)NC5=O)nn(C)c4c3)nc2)cccc1-c1ccc(N2CCc3cccc(C(=O)Nc4nc5ccccc5s4)c3C2)nc1C(=O)O (stereo not drawn) [Compound 280, 6-[8-(1,3-benzothiazol-2-ylcarbamoyl)-3,4-dihydro-1H-isoquinolin-2-yl]-3-[3-[3-[6-[2-[[3-(2,6-dioxo-3-piperidyl)-1-methyl-indazol-6-yl]amino]-2-oxo-ethyl]-3-pyridyl]propoxy]-2-methyl-phenyl]pyridine-2-carboxylic acid]	B (50% ≤ Ymin < 70%)	< 100		
Cc1c(OCCCC2CCN(CC(=O)Nc3ccc4c(C5CCC(=O)NC5=O)nn(C)c4c3)CC2)cccc1-c1ccc(N2CCc3cccc(C(=O)Nc4nc5ccccc5s4)c3C2)nc1C(=O)O (stereo not drawn) [Compound 121, 6-(8-(Benzo[d]thiazol-2-ylcarbamoyl)-3,4-dihydroisoquinolin-2(1H)-yl)-3-(3-(3-(1-(2-((3-(2,6-dioxopiperidin-3-yl)-1-methyl-1H-indazol-6-yl)amino)-2-oxoethyl)piperidin-4-yl)propoxy)-2-methylphenyl)picolinic acid]	A (Ymin < 50%)	< 100	A (Ymin < 50%)	< 100
Cc1c(OCCCC2CCN(CCCOc3ccc4c(C5CCC(=O)NC5=O)nn(C)c4c3)CC2)cccc1-c1ccc(N2CCc3cccc(C(=O)Nc4nc5ccccc5s4)c3C2)nc1C(=O)O (stereo not drawn) [Compound 172, 6-(8-(benzo[d]thiazol-2-ylcarbamoyl)-3,4-dihydroisoquinolin-2(1H)-yl)-3-(3-(3-(1-(3-((3-(2,6-dioxopiperidin-3-yl)-1-methyl-1H-indazol-6-yl)oxy)propyl)piperidin-4-yl)propoxy)-2-methylphenyl)picolinic acid]	A (Ymin < 50%)	< 100	C (Ymin ≥ 70%)	100 to 1000
Cc1cc(OCCCN2CCN(CC(=O)Nc3cccc4c(C5CCC(=O)NC5=O)nn(C)c34)CC2)ccc1-c1ccc(N2CCc3cccc(C(=O)Nc4nc5ccccc5s4)c3C2)nc1C(=O)O (stereo not drawn) [Compound 242, 6-[8-(1,3-benzothiazol-2-ylcarbamoyl)-3,4-dihydro-1H-isoquinolin-2-yl]-3-[4-[3-[4-[2-[[3-(2,6-dioxo-3-piperidyl)-1-methyl-indazol-7-yl]amino]-2-oxo-ethyl]piperazin-1-yl]propoxy]-2-methyl-phenyl]pyridine-2-carboxylic acid]	C (Ymin ≥ 70%)	< 100	C (Ymin ≥ 70%)	1000 to 10000
Cc1cc(Oc2ccc(CCC(=O)Nc3ccc4c(C5CCC(=O)NC5=O)nn(C)c4c3)cc2)ccc1-c1ccc(N2CCc3cccc(C(=O)Nc4nc5ccccc5s4)c3C2)nc1C(=O)O (stereo not drawn) [Compound 139, 6-(8-(benzo[d]thiazol-2-ylcarbamoyl)-3,4-dihydroisoquinolin-2(1H)-yl)-3-(4-(4-(3-((3-(2,6-dioxopiperidin-3-yl)-1-methyl-1H-indazol-6-yl)amino)-3-oxopropyl)phenoxy)-2-methylphenyl)picolinic acid]	B (50% ≤ Ymin < 70%)	100 to 1000	B (50% ≤ Ymin < 70%)	100 to 1000
Cc1c(-c2ccc(N3CCc4cccc(C(=O)Nc5nc6ccccc6s5)c4C3)nc2C(=O)NCCCCCC(=O)Nc2ccc3c(C4CCC(=O)NC4=O)nn(C)c3c2)cnn1CC12CC3CC(CC(C3)C1)C2 (stereo not drawn) [Compound 111, 2-(5-(1-(((3r,5r,7r)-adamantan-1-yl)methyl)-5-methyl-1H-pyrazol-4-yl)-6-((6-((3-(2,6-dioxopiperidin-3-yl)-1-methyl-1H-indazol-6-yl)amino)-6-oxohexyl)carbamoyl)pyridin-2-yl)-N-(benzo[d]thiazol-2-yl)-1,2,3,4-tetrahydroisoquinoline-8-carboxamide]			B (50% ≤ Ymin < 70%)	< 100
Cc1c(OCCCC2CCN(CCN3CCN(c4ccc5c(C6CCC(=O)NC6=O)nn(C)c5c4)CC3)CC2)cccc1-c1ccc(N2CCc3cccc(C(=O)Nc4nc5ccccc5s4)c3C2)nc1C(=O)O (stereo not drawn) [Compound 220, 6-[8-(1,3-benzothiazol-2-ylcarbamoyl)-3,4-dihydro-1H-isoquinolin-2-yl]-3-[3-[3-[1-[2-[4-[3-(2,6-dioxo-3-piperidyl)-1-methyl-indazol-6-yl]piperazin-1-yl]ethyl]-4-piperidyl]propoxy]-2-methyl-phenyl]pyridine-2-carboxylic acid]	A (Ymin < 50%)	< 100		
Cc1c(CCCOC2CCN(CC(=O)Nc3ccc4c(C5CCC(=O)NC5=O)nn(C)c4c3)CC2)cccc1-c1ccc(N2CCc3cccc(C(=O)Nc4nc5ccccc5s4)c3C2)nc1C(=O)O (stereo not drawn) [Compound 290, 6-[8-(1,3-benzothiazol-2-ylcarbamoyl)-3,4-dihydro-1H-isoquinolin-2-yl]-3-[3-[3-[[1-[2-[[3-(2,6-dioxo-3-piperidyl)-1-methyl-indazol-6-yl]amino]-2-oxo-ethyl]-4-piperidyl]oxy]propyl]-2-methyl-phenyl]pyridine-2-carboxylic acid]	A (Ymin < 50%)	< 100		
Cc1c(-c2ccc(N3CCc4cccc(C(=O)Nc5nc6ccccc6s5)c4C3)nc2C(=O)NCC(=O)Nc2ccc3c(C4CCC(=O)NC4=O)nn(C)c3c2)cnn1Cc1ccccc1 (stereo not drawn) [Compound 135, N-(1,3-benzothiazol-2-yl)-2-[5-(1-benzyl-5-methyl-pyrazol-4-yl)-6-[[2-[[3-(2,6-dioxo-3-piperidyl)-1-methyl-indazol-6-yl]amino]-2-oxo-ethyl]carbamoyl]-2-pyridyl]-3,4-dihydro-1H-isoquinoline-8-carboxamide]			B (50% ≤ Ymin < 70%)	< 100

More lines, now with the values ahead:

Ymin (24 h)	DC50 (24 h, read-out: EC50 (24 h)) [nM]	Ymin (6 h)	DC50 (6 h, read-out: EC50 (6 h)) [nM]	SMILES
A (Ymin < 50%)	< 100			Cc1c(O[C@H]2CC[C@H](CCCCN3CCC[C@@H](c4ccc5c(C6CCC(=O)NC6=O)nn(C)c5c4)C3)CC2)cccc1-c1ccc(N2CCc3cccc(C(=O)Nc4nc5ccccc5s4)c3C2)nc1C(=O)O (single isomer, unassigned) [Compound 352b]
A (Ymin < 50%)	< 100			Cc1c(OCCC[C@@H]2CCN(CC(=O)Nc3ccc4c(C5CCC(=O)NC5=O)nn(C)c4c3)C2)cccc1-c1ccc(N2CCc3cccc(C(=O)Nc4nc5ccccc5s4)c3C2)nc1C(=O)O (stereo partly drawn) [Compound 160a, 6-[8-(1,3-benzothiazol-2-ylcarbamoyl)-3,4-dihydro-1H-isoquinolin-2-yl]-3-[3-[3-[(3R)-1-[2-[[3-(2,6-dioxo-3-piperidyl)-1-methyl-indazol-6-yl]amino]-2-oxo-ethyl]pyrrolidin-3-yl]propoxy]-2-methyl-phenyl]pyridine-2-carboxylic acid]
A (Ymin < 50%)	< 100			Cc1c(O[C@H]2CC[C@H](CCCCN3CCC(Oc4cccc5c(C6CCC(=O)NC6=O)nn(C)c45)CC3)CC2)cccc1-c1ccc(N2CCc3cccc(C(=O)Nc4nc5ccccc5s4)c3C2)nc1C(=O)O (stereo partly drawn) [Compound 327a, 6-(8-(benzo[d]thiazol-2-ylcarbamoyl)-3,4-dihydroisoquinolin-2(1H)-yl)-3-(3-(((1s,4r)-4-(4-(4-((3-(2,6-dioxopiperidin-3-yl)-1-methyl-1H-indazol-7-yl)oxy)piperidin-1-yl)butyl)cyclohexyl)oxy)-2-methylphenyl)picolinic acid]
A (Ymin < 50%)	< 100			Cc1c(O[C@H]2CC[C@H](CCCN3CCC(c4ccc5c(C6CCC(=O)NC6=O)nn(C)c5c4)CC3)CC2)cccc1-c1ccc(N2CCc3cccc(C(=O)Nc4nc5ccccc5s4)c3C2)nc1C(=O)O (stereo partly drawn) [Compound 269a, 6-(8-(benzo[d]thiazol-2-ylcarbamoyl)-3,4-dihydroisoquinolin-2(1H)-yl)-3-(3-(((1s,4r)-4-(3-(4-(3-(2,6-dioxopiperidin-3-yl)-1-methyl-1H-indazol-6-yl)piperidin-1-yl)propyl)cyclohexyl)oxy)-2-methylphenyl)picolinic acid]
